According to US8541670B2, “Compositions and methods for inhibiting tumor cell growth” (priority 2007, dated 2013):
Where no end group is shown, it is not given here.

Tests used:
N2a cells = experiment: MTT cell proliferation assay; type: cell-based
Procedure: In histogram series 2, treatments were removed after 24 hours and cells were incubated for another 24 hours without treatment. […] Mitochondrial activity (reflecting cellular growth and viability) in the presence of ZaTa and ZaTa variants (ZaTa T10D, ZaTa T8D, ZaTa T14R, and ZaTa Y17T) was evaluated by measuring the optical density (“OD”) at 490 nm on a plate reader. ZaTa T10D refers to a ZaTa polypeptide variant in which the Threonine (T) at position 10 of SEQ ID NO: 60 is substituted by an Aspartic Acid (D). ZaTa T8D refers to a ZaTa polypeptide variant in which the Threonine (T) at position 8 of SEQ ID NO: 60 is substituted by an Aspartic Acid (D). ZaTa T14R refers to a ZaTa polypeptide variant in which the Threonine (T) at position 14 of SEQ ID NO: 60 is substituted by an Arginine (R). ZaTa Y17T refers to a ZaTa polypeptide variant in which the Tyrosine (Y) at position 17 of SEQ ID NO: 60 is substituted by an Threonine (T).
AKT affects a network that positively regulates G1/S cell cycle progression through several mechanisms that involve the expression and subcellular localization of the CDK inhibitor p27^Kip1 (Blain and Massague (2002) Nat. Med. 8:1076-1078; Liang, et al. (2002) supra; Shin, et al. (2002) supra; Viglietto, et al. (2002) supra). Based on these studies, the effect of ZaTa peptide on cell proliferation was assessed. […] Capturing live images of cultured N2a cells in the presence of different concentrations of the ZaTa peptide confirmed an obvious reduction in the number of dividing cells.
Based on the importance of the C-terminal arm of ZaTa for its inhibitory action on AKT, it was determined whether the free hydroxyl groups on residues Thr-8, Thr-10 (equivalent to Thr-197 in full-length PKAc), Thr-14 and Tyr-17 were important for the biological activity of this peptide. Mutants of ZaTa peptide were synthesized by replacing Thr-8 or Thr-10 residues with Asp (ZaTa^T8D and ZaTa^T10D, respectively) as an amino acid with a negatively charged side chain. Mutants of ZaTa with the hydrophilic positively charged amino acid Arg at either position Thr-14 or Tyr-17 (ZaTa^T14R and ZaTa^Y17R, respectively) were also synthesized. […] The inhibitory effect of ZaTa peptide on cell proliferation was reversible, to a large extent, after the removal of ZaTa treatment (FIG. 3, histogram series 2).
Cells (5×10^3) were incubated in 96-well plates in the presence of different concentrations of the ZaTa peptide, control peptide or DMSO as vehicle. Media was removed at different time intervals and replaced with media containing MTT (5 mg/mL), and incubated for one hour at 37° C. […] The activity of the mitochondria, reflecting cellular growth and viability, was evaluated by measuring the optical density at 490 nm on a plate reader.

p70S6K = target: T1, p70S6K (Mus musculus, UniProt Q8BSK8); experiment: In vivo selectivity, western blot of phosphorylated substrate after injection into one hemisphere; conditions: versus DMSO hemisphere
T1 construct: from tissue; host or cells: mouse brain hemisphere
T1 sequence (Q8BSK8 whole entry): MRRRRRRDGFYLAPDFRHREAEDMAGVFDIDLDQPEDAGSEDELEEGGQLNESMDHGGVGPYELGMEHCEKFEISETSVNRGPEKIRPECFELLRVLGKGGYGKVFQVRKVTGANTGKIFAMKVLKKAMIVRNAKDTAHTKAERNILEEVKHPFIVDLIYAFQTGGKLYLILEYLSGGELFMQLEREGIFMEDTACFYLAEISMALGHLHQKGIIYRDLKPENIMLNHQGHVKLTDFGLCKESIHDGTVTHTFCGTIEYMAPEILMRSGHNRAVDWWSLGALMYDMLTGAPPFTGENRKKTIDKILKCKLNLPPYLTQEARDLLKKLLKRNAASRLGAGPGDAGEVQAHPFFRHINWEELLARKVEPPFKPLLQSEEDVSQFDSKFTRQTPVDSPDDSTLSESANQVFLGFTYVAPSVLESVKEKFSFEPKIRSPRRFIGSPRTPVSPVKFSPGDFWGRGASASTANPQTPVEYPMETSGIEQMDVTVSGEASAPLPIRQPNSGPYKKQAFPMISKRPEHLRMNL
Procedure: (§1) To analyze in vivo selectivity, ZaTa was injected into one hemisphere and DMSO in the other hemisphere, as above, and a series of western blot analyses was preformed with phospho-specific antibodies which recognize a phosphorylated substrate or each one of the kinases that ZaTa inhibited at higher concentrations in vitro. […] Given the high functional and structural homology between p70S6K and AKT, the in vivo inhibitory effect of ZaTa on p70S6K was contemplated. Furthermore, the in vivo effect of ZaTa on the phosphorylation levels of substrates for PKA, PKC, CDKs using phospho-specific antibodies recognizing the phosphorylated consensus sites of these kinases was analyzed. In contrast to the consistent decrease in phosphorylation of AKT substrates, significant changes in the phosphorylation level of PKA, PKC and CDKs substrates was not observed after in vivo injection of ZaTa.
(§2) Phosphorylation sites for kinases analyzed herein included Ser-235/236 S6 (a substrate for p70S6K), Tyr-207 CRKL (a substrate for Abl; Zipfel, et al. (2004) supra), Ser-241 PDK1 (a substrate for PI3K), Tyr-1022/1023 JAK1 (a substrate for JAK3; Wang, et al. (2003) supra), Ser-421 Huntingtin (a substrate for SGK; Rangone, et al. (2004) supra), Tyr-783 PLC (a substrate for TrkB; Middlemas, et al. (1994) supra), and Ser-338 cRaf (a substrate for PAK3; King, et al. (1998) supra).

Abl = target: T2, Abl (Mus musculus, UniProt P00520); experiment: as above; conditions: versus DMSO hemisphere
T2 construct: from tissue; host or cells: mouse brain hemisphere (striatum injection)
T2 sequence (P00520 whole entry): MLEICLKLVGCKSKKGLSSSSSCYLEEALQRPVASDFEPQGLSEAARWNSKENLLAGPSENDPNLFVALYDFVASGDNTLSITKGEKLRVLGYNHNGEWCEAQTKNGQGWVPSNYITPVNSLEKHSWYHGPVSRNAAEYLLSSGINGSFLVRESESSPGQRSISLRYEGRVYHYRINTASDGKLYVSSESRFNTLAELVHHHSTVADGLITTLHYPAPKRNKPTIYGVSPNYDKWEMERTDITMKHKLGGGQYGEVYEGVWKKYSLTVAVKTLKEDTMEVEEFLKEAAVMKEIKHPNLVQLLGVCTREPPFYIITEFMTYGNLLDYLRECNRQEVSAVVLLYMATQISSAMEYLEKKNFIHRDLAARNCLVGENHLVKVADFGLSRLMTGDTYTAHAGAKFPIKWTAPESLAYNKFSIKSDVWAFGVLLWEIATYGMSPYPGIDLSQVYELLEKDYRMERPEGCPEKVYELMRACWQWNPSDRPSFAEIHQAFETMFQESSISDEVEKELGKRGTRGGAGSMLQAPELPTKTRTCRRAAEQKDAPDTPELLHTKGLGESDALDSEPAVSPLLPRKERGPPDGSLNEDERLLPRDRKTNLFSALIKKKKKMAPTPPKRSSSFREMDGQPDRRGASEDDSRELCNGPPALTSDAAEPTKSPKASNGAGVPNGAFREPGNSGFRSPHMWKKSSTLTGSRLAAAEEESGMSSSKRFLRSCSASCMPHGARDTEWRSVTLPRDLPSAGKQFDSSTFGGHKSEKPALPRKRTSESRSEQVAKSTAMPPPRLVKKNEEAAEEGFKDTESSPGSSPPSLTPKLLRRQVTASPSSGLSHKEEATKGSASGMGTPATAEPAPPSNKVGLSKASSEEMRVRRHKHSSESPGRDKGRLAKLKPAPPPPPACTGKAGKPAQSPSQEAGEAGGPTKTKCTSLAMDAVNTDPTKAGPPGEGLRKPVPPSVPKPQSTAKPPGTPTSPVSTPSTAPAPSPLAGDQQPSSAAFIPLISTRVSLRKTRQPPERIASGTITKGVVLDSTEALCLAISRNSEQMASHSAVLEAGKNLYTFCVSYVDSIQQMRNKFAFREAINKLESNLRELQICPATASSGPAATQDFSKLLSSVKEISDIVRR
Procedure: as §1, §2

AKT = experiment: Cell penetration and co-localization of fluorescently labeled ZaTa with AKT; type: cell-based; conditions: immunofluorescence
Excerpt: Peptides can be very effective inhibitors since they efficiently bind to and inhibit enzymatic activity. However, intracellular delivery of peptides can limit their use. With the exception of a few peptides known as cell-penetrating peptides (CPPs), which have been recognized for their use in site-specific drug delivery, inhibitory peptides can have limited intracellular accumulation in in vivo enzymatic studies. […] Based on the primary structure of the ZaTa peptide (i.e., a peptide having a basic arm of several basic residues at the N-terminus and a polar arm composed of several residues with free hydroxyl group at the C-terminus) and in vivo inhibitory effect in the brain, it was determined whether ZaTa peptide was a CPP. The ZaTa peptide was labeled with a red fluorescent dye at its N-terminus given that its C-terminus was important for inhibitory activity. The efficiency of the labeling and the purity of the labeled peptide were assessed by mass spectrometry.
These different localization patterns of ZaTa within the cell were usually accompanied with redistribution of AKT to the site of ZaTa.
Cell cultures were analyzed by growing cells (1×10^4) on coverslips, fixation for 10 minutes in phosphate-buffered saline (PBS) plus 3.7% formaldehyde, and permeabilization for 2 minutes with cold acetone. […]

AKRVKGRTWTLCGTPEY [ZaTa]
dose causing significant decrease in the number of live cells (as low as) (N2a cells): 2 µM | number of live cells 24 hours after removal of treatment versus DMSO vehicle (N2a cells; 10 μM, 24 hours treatment then 24 hours without): no significant differences | number of live cells, MTT (N2a cells; different concentrations): dose-dependent decrease in the number of live cells | in vivo inhibition of p70S6K (p70S6K): potent in vivo inhibition | in vivo inhibition of Abl (Abl): weaker in vivo inhibition | phosphorylation level of AKT substrates in cells entered by ZaTa (AKT): decrease in the phosphorylation level of AKT substrates
